Assay results reported in patent US9980957B2, “Histone deacetylase (HDAC) inhibitors for the treatment of cancer” (TopoTarget UK Limited, priority 2005, dated 2018).
Like-named read-outs stand apart in the source and are kept apart here.

What was measured:
[1] = system: six multiple myeloma cell lines, three plasma cell leukemia cell lines and one plasmacytoma; test: CellTiter-Glo cell viability assay, all ten cell lines; assay type: cell-based; conditions: 72 h
Method: (§1) Percent activity (% activity), was calculated for each test compound as: % activity={(S^c−B)/(S^o−B)}×100
(§2) wherein S^c denotes signal measured in the presence of the compound being tested, S^o denotes signal measured in the absence of the compound being tested, and B denotes the background signal measured in blank wells containing medium only. The IC50 corresponds to the drug concentration which achieves 50% activity of untreated control cultures. IC50 values were calculated using the software package Prism 3.0 (GraphPad Software Inc., San Diego, Calif.) with variable slope option.
(§3) This example reports the effects of PXD-101 on six distinct multiple myeloma cell lines, three plasma cell leukemia cell lines and one plasmacytoma. The cells were incubated with PXD-101 for 72 hours in vitro, and their viability measured by the CellTiter-Glo assay.

[2] = Phase 1 dose escalation study, safety; assay type: in vivo, human
Method: (§4) A Phase 1 open label, dose escalation, safety, pharmacokinetics (PK), and pharmacodynamics (PD) study of PXD-101 was conducted in patients with advanced cancers.
(§5) PXD-101 was administered as a 30-minute intravenous (IV) infusion daily for 5-days every 3-weeks. In a subgroup of patients, PXD-101 was administered orally once, twice or thrice on day 1 only, in course 2 or 3. Acetylation of histones extracted from peripheral blood mononuclear cells (PBMNC) was measured by Western blotting. The PK/PD profile of intravenous and oral PXD-101 was evaluated.
The results of this study are as follows: 34 patients (median age 58 years, range 28-74; 19 male, all ECOG PS≤2) have been treated with a total of 103 cycles of PXD-101 (median 2; range 1 to 13) at 6 dose levels: 150 mg/m^2 (4 patients), 300 mg/m^2 (4 patients), 600 mg/m^2 (6 patients), 900 mg/m^2 (3 patients), 1000 mg/m^2 (12 patients) and 1200 mg/m^2 (5 patients).

diverse tumor cell lines = test: Proliferation of diverse tumor cell lines; assay type: cell-based
[3] = system: histone H4 acetylation in peripheral blood mononuclear cells; test: Phase 1 study, pharmacodynamics: acetylation of histones from PBMNC by Western blotting; assay type: in vivo, human
Method: as §5

[4] = system: SK-MM-2 plasma cell leukemia cell line; test: CellTiter-Glo cell viability assay; assay type: cell-based; conditions: Homo sapiens; SK-MM-2, plasma cell leukemia t(11;14)(q13;q32); 72 h; read-out: PXD-101 IC50
Method: as §1, §2, §3

[5] = system: LP-1 multiple myeloma cell line; test: CellTiter-Glo cell viability assay; assay type: cell-based; conditions: Homo sapiens, LP-1, MM t(4;14)(p16;q32), 72 h, read-out: PXD-101 IC50
Method: as §1, §2, §3

[6] = system: U266 multiple myeloma cell line; test: CellTiter-Glo cell viability assay; assay type: cell-based; conditions: Homo sapiens, U-266, 72 h, read-out: PXD-101 IC50
Method: as §1, §2, §3

[7] = system: AMO-1 plasmacytoma cell line; test: CellTiter-Glo cell viability assay; assay type: cell-based; conditions: Homo sapiens, AMO1, 72 h, read-out: PXD-101 IC50
Method: as §1, §2, §3

[8] = system: RPMI-8226 multiple myeloma cell line; test: CellTiter-Glo cell viability assay; assay type: cell-based; conditions: Homo sapiens, 72 h, read-out: PXD-101 IC50
Method: as §1, §2, §3

[9] = system: L-363 plasma cell leukemia cell line; test: CellTiter-Glo cell viability assay; assay type: cell-based; conditions: Homo sapiens, 72 h, read-out: PXD-101 IC50
Method: as §1, §2, §3

[10] = system: EJM multiple myeloma cell line; test: CellTiter-Glo cell viability assay; assay type: cell-based; conditions: Homo sapiens, 72 h, read-out: PXD-101 IC50
Method: as §1, §2, §3

[11] = system: KARPAS-620 plasma cell leukemia cell line; test: CellTiter-Glo cell viability assay; assay type: cell-based; conditions: KARPAS-620, plasma cell leukemia t(8;14)(q24;q32); 72 h; read-out: PXD-101 IC50
Method: as §1, §2, §3

[12] = system: OPM-2 multiple myeloma cell line; test: CellTiter-Glo cell viability assay; assay type: cell-based; conditions: Homo sapiens; OPM-2, MM t(4;14)(p16;q32); 72 h; read-out: PXD-101 IC50
Method: as §1, §2, §3

[13] = system: KMS-12-BM multiple myeloma cell line; test: CellTiter-Glo cell viability assay; assay type: cell-based; conditions: Homo sapiens, MM t(11;14)(q13;q32), 72 h, read-out: PXD-101 IC50
Method: as §1, §2, §3

[14] = Phase 1 dose escalation study, pharmacokinetics; assay type: in vivo, human; conditions: for half-life / Cmax / bioavailability: human, in vivo
Method: as §4, §5

advanced cancers = test: Phase 1 study, tumor reduction in patients with advanced cancers; assay type: in vivo, human; conditions: a patient with epithelial mediastinal thymoma
Method: A Phase 1 open label, dose escalation, safety, pharmacokinetics (PK), and pharmacodynamics (PD) study of PXD-101 was conducted in patients with advanced cancers. PXD-101 was administered as a 30-minute intravenous (IV) infusion daily for 5-days every 3-weeks. In a subgroup of patients, PXD-101 was administered orally once, twice or thrice on day 1 only, in course 2 or 3. Acetylation of histones extracted from peripheral blood mononuclear cells (PBMNC) was measured by Western blotting. The PK/PD profile of intravenous and oral PXD-101 was evaluated.

[15] = system: A2780 ovarian cancer subcutaneous xenograft; test: A2780 ovarian cancer subcutaneous xenograft model; assay type: in vivo; conditions: AVASTIN 5 mg/kg on day 4, mice
Method: The object of this study was to investigate the tumour growth inhibitory effect of AVASTIN® (bevacizumab) in an A2780 ovarian cancer subcutaneous xenograft model. Mice were treated on day 4 with AVASTIN® (bevacizumab) (5 mg/kg). The chemosensitising effect of PXD-101 in combination with AVASTIN® (bevacizumab) was also investigated.

O=C(/C=C/c1cccc(S(=O)(=O)Nc2ccccc2)c1)NO [PXD-101]
IC50 ([1]; mean of ten cell lines, read-out: IC50, mean of the ten cell lines): 0.097 µM | IC50 ([1]; ten cell lines, read-out: IC50, range over the ten cell lines): 0.028 to 0.196 µM | Patients with dose limiting toxicity ([2]; both, human, in vivo, iv, 5 days every 3 weeks): 3 patients | Most commonly reported other adverse events ([2]; in vivo): fatigue, nausea, vomiting, constipation, diarrhea and injection site reactions | Dose limiting toxicity ([2]; in vivo, iv): short-lived atrial fibrillation | Tolerability, in words ([2]; in vivo, iv): well tolerated | Tolerability, in words ([2]; in vivo, po): well tolerated | MTD ([2]; once daily for 5-days 30-minute IV infusion): 1000 mg/m^2 | IC50 (diverse tumor cell lines): 0.08 to 2.43 µM | Duration of histone H4 hyperacetylation ([3]; IV infusion, dose-dependent): 4 to 24 h | Duration of histone acetylation above baseline ([3]; oral 1000 mg/m^2): 5 to 10 h | Histone acetylation above baseline ([3]; oral 1000 mg/m^2): 40-50% | IC50 [4]: 0.028 µM | IC50 [5]: 0.045 µM | IC50 [6]: 0.141 µM | IC50 [7]: 0.029 µM | IC50 [8]: 0.196 µM | IC50 [9]: 0.1 µM | IC50 [10]: 0.123 µM | IC50 [11]: 0.112 µM | IC50 [12]: 0.106 µM | IC50 [13]: 0.088 µM | Accumulation, oral ([14]; 8-hour interval dosing): tendency towards accumulation | Accumulation, oral ([14]; 12-hour interval dosing): no accumulation | half-life ([14]; intravenous, one patient outside the range, read-out: t1/2, one patient (converted)): 1.8 h | half-life ([14]; iv, patients, IV infusion, read-out: Terminal elimination half-life): 0.5 to 1 h | Cmax ([14]; iv, reached at the end of the infusion): 6500 to 55800 ng/mL | Cmax ([14]; po, 1000 mg/m2, b.i.d. 1000 mg/m^2 oral on a single day, 5 patients): 1100 to 2900 ng/mL | bioavailability ([14]; po, 1000 mg/m2, b.i.d. 1000 mg/m^2 oral on a single day, 5 patients, SD 12.5%, read-out: Mean oral bioavailability): 42.8% | half-life ([14]; po, 1000 mg/m2, b.i.d. 1000 mg/m^2 oral on a single day, 5 patients, read-out: t1/2): 1.5 to 2 h | Cmax ([14]; po, 1000 mg/m2, t.i.d. 1000 mg/m^2 oral on a single day, 2 patients): 1300 to 1800 ng/mL | half-life ([14]; po, 1000 mg/m2, t.i.d. 1000 mg/m^2 oral on a single day, 2 patients, read-out: t1/2): 2 to 2.6 h | bioavailability ([14]; po, oral single dose, read-out: Mean single dose oral bioavailability): 33% | Oral bioavailability, in words ([14]; patients): orally bioavailable | PK dose dependence, in words ([14]; patients, IV): dose-proportional | Accumulation on repeated IV dosing ([14]; repeated IV dosing): no drug accumulation | Reduction of mediastinal disease (advanced cancers): 70% | Time on the study (advanced cancers): over 1 year

AVASTIN® (bevacizumab): recombinant humanized antibody to Vascular Endothelial Growth Factor (VEGF)
Tumour growth inhibition, in words [15]: significant growth inhibition
